Results published in ChEMBL document CHEMBL5360655, “Design, Synthesis, and Biological Evaluation of Novel P2X7 Receptor Antagonists for the Treatment of Septic Acute Kidney Injury” (J Med Chem, 2023).
Values belong to the compound of their own block, whether it stands above or below them. The source made the active and inactive calls. The calls are words filed in the database; no cut-off is given here.

Key:
[1] = biological target: T1, P2X purinoceptor 7 (Mus musculus) (UniProt Q9Z1M0); experiment: Antagonist activity at mouse P2X7 receptor expressed in HEK293 cells assessed as inhibition of ATP-induced receptor pore formation at 200 nM by propidium iodide dye uptake based fluorescence analysis; format: cell-based
T1 sequence (whole entry): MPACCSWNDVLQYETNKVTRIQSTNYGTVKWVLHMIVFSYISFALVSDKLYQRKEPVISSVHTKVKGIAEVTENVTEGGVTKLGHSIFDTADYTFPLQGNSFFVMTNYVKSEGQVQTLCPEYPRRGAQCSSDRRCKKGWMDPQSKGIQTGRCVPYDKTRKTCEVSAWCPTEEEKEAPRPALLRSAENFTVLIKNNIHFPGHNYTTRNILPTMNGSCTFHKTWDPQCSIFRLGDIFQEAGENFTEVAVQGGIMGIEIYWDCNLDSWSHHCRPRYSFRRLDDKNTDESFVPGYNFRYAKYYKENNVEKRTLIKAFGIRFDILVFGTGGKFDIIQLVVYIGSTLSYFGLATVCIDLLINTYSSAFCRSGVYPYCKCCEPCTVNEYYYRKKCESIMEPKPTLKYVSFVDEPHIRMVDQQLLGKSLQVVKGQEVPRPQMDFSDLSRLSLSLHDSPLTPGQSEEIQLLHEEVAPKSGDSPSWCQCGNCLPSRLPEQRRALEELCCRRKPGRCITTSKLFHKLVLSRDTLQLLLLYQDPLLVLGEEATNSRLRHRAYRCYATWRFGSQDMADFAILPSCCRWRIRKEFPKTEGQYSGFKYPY

[2] = biological target: T2, P2X purinoceptor 7 (Homo sapiens) (UniProt Q99572); experiment: Antagonist activity at human P2X7 receptor expressed in HEK293 cells assessed as inhibition of ATP-induced receptor pore formation at 1 uM by propidium iodide dye uptake based fluorescence analysis; format: cell-based
T2 sequence (whole entry): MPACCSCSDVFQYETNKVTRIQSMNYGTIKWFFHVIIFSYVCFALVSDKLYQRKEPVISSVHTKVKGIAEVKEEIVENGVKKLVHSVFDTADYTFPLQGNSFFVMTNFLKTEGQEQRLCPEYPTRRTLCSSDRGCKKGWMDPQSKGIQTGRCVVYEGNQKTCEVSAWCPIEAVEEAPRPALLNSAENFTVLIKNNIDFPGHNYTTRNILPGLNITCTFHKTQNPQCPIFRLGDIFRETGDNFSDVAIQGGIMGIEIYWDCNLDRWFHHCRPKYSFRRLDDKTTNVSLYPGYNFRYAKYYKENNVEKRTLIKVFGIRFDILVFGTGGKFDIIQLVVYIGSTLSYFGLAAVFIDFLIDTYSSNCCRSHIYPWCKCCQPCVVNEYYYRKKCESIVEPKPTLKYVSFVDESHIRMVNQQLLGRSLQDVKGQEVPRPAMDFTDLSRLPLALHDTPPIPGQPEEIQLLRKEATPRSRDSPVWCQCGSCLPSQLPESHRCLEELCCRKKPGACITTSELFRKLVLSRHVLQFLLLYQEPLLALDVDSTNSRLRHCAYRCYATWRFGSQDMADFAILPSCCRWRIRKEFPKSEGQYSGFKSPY

P2X purinoceptor 7 [3] = biological target: T3, P2X purinoceptor 7 (Mus musculus, UniProt Q9Z1M0); experiment: Antagonist activity at mouse P2X7 receptor expressed in HEK293 cells assessed as inhibition of ATP-induced receptor pore formation by propidium iodide dye uptake based fluorescence analysis; format: cell-based
T3 sequence (Q9Z1M0 whole entry): T1 sequence (whole entry)

[4] = Half life in human liver microsomes; format: ADME, Microsome
[5] = Intrinsic clearance in mouse liver microsomes; format: ADME, Microsome; settings: read-out: CLH
[6] = Intrinsic clearance in human liver microsomes; format: ADME, Microsome; settings: read-out: CLH
[7] = Half life in mouse liver microsomes; format: ADME, Microsome
[8] = biological target: T1, P2X purinoceptor 7 (Mus musculus); experiment: Antagonist activity at mouse P2X7 receptor expressed in HEK293 cells assessed as inhibition of ATP-induced receptor pore formation at 1 uM by propidium iodide dye uptake based fluorescence analysis; format: cell-based
P2X purinoceptor 7 [9] = biological target: T4, P2X purinoceptor 7 (Homo sapiens, UniProt Q99572); experiment: Antagonist activity at human P2X7 receptor expressed in HEK293 cells assessed as inhibition of ATP-induced receptor pore formation by propidium iodide dye uptake based fluorescence analysis; format: cell-based
T4 sequence (Q99572 whole entry): T2 sequence (whole entry)

[10] = biological target: T2, P2X purinoceptor 7 (Homo sapiens); experiment: Antagonist activity at human P2X7 receptor expressed in HEK293 cells assessed as inhibition of ATP-induced receptor pore formation at 200 nM by propidium iodide dye uptake based fluorescence analysis; format: cell-based
[11] = biological target: T1, P2X purinoceptor 7 (Mus musculus); experiment: Antagonist activity at mouse P2X7 receptor expressed in HEK293 cells assessed as inhibition of ATP-induced receptor pore formation at 10 uM by propidium iodide dye uptake based fluorescence analysis; format: cell-based
[12] = biological target: T2, P2X purinoceptor 7 (Homo sapiens); experiment: Antagonist activity at human P2X7 receptor expressed in HEK293 cells assessed as inhibition of ATP-induced receptor pore formation at 10 uM by propidium iodide dye uptake based fluorescence analysis; format: cell-based

SMILES: O=C(NCc1cn(-c2cc(Cl)ccn2)nn1)c1cc(Br)ccc1Cl
inhibition [11]: 10% | inhibition ([12]; filed as antagonist): 59.3%

SMILES: CS(=O)(=O)c1cccc(-c2ccc(Cl)c(C(=O)NCc3cn(-c4cc(Cl)ccn4)nn3)c2)c1
inhibition ([11]; filed as antagonist): > 50% | inhibition ([12]; filed as antagonist): > 50% | inhibition [1]: inactive | inhibition ([2]; filed as antagonist): 41.9% | inhibition ([8]; filed as antagonist): 49.6% | inhibition [10]: inactive

SMILES: O=C(NCc1cn(-c2cc(Cl)ccn2)nn1)c1cc(-c2cccc3ncccc23)ccc1Cl
inhibition ([11]; filed as antagonist): > 50% | inhibition ([12]; filed as antagonist): > 50% | inhibition ([1]; filed as antagonist): 66.7% | inhibition [2]: 33.1% | IC50 (P2X purinoceptor 7 [3]): 138 nM | inhibition ([8]; filed as antagonist): 72.4% | inhibition [10]: 13.6%

SMILES: O=C(NCc1cn(-c2cc(Cl)ccn2)nn1)c1cc(-c2cccc3cc[nH]c23)ccc1Cl
inhibition [1]: 25.6% | inhibition [2]: inactive | IC50 (P2X purinoceptor 7 [3]): 351 nM | inhibition ([8]; filed as antagonist): 62.5% | inhibition [10]: inactive

SMILES: O=C(NCc1cn(-c2cc(Cl)ccn2)nn1)c1ccccc1Cl
inhibition [11]: inactive | inhibition [12]: inactive

SMILES: O=C(NCc1cn(-c2cc(Cl)ccn2)nn1)c1ccc(Cl)cc1
inhibition ([11]; filed as antagonist): 62.8% | inhibition [12]: inactive

SMILES: O=C(NCc1cn(-c2cc(Cl)ccn2)nn1)c1cccc(C(F)(F)F)c1Cl
inhibition [11]: 13.2% | inhibition ([12]; filed as antagonist): 46.5%

SMILES: CS(=O)(=O)c1ccc(-c2nc(C(=O)NCc3cn(-c4ccc(Br)cn4)nn3)cs2)cc1
inhibition [1]: inactive | inhibition ([2]; filed as antagonist): 51.6% | inhibition [8]: inactive | IC50 (P2X purinoceptor 7 [9]): 811 nM | inhibition [10]: 11%

SMILES: CS(=O)(=O)Nc1ccc(-c2ccc(Cl)c(C(=O)NCc3cn(-c4cc(Cl)ccn4)nn3)c2)cc1
inhibition [1]: inactive | inhibition [2]: inactive | inhibition ([8]; filed as antagonist): 45.1% | inhibition [10]: inactive

Further lines, results first:

inhibition ([1]; filed as antagonist): 82.4% | inhibition ([2]; filed as antagonist): 78.8% | IC50 (P2X purinoceptor 7 [3]): 58.5 nM | half-life [4]: 1.2 h | CLint scaled [5]: 215 mL/min/kg | CLint scaled [6]: 24.1 mL/min/kg | half-life [7]: 0.423 h | inhibition ([8]; filed as antagonist): 112% | IC50 (P2X purinoceptor 7 [9]): 436 nM | inhibition ([10]; filed as antagonist): 46.5%
SMILES: O=C(NCc1cn(-c2cc(Cl)ccn2)nn1)c1cnc(-c2cccc(NS(=O)(=O)N3CCOCC3)c2)s1

inhibition ([1]; filed as antagonist): 71.6% | inhibition ([2]; filed as antagonist): 52.3% | IC50 (P2X purinoceptor 7 [3]): 93.3 nM | half-life [4]: > 2 h | CLint scaled [5]: < 12 mL/min/kg | CLint scaled [6]: < 12 mL/min/kg | half-life [7]: > 2 h | inhibition ([8]; filed as antagonist): 89.8% | IC50 (P2X purinoceptor 7 [9]): 340 nM | inhibition [10]: 26.6%
SMILES: CS(=O)(=O)Nc1ccc(-c2ncc(C(=O)NCc3cn(-c4cc(Cl)ccn4)nn3)s2)cc1

inhibition ([1]; filed as antagonist): 54.3% | inhibition ([2]; filed as antagonist): 86.1% | IC50 (P2X purinoceptor 7 [3]): 104 nM | half-life [4]: 1.89 h | CLint scaled [5]: 154 mL/min/kg | CLint scaled [6]: 15.3 mL/min/kg | half-life [7]: 0.589 h | inhibition ([8]; filed as antagonist): 78.2% | IC50 (P2X purinoceptor 7 [9]): 99.6 nM | inhibition ([10]; filed as antagonist): 55.2%
SMILES: O=C(NCc1cn(-c2cc(Cl)ccn2)nn1)c1cnc(-c2ccc(NS(=O)(=O)N3CCOCC3)cc2)s1

inhibition ([1]; filed as antagonist): 67.6% | inhibition ([2]; filed as antagonist): 56.3% | IC50 (P2X purinoceptor 7 [3]): 344 nM | half-life [4]: 0.717 h | CLint scaled [5]: 66.2 mL/min/kg | CLint scaled [6]: 40.4 mL/min/kg | half-life [7]: 1.38 h | inhibition ([8]; filed as antagonist): 92.6% | IC50 (P2X purinoceptor 7 [9]): 659 nM | inhibition [10]: 22.1%
SMILES: CC(C)S(=O)(=O)c1ccc(-c2ncc(C(=O)NCc3cn(-c4cc(Cl)ccn4)nn3)s2)cc1

inhibition [1]: inactive | inhibition [2]: 6.8% | inhibition [8]: 17.3% | inhibition [10]: inactive
SMILES: CS(=O)(=O)Nc1cccc(-c2ncc(C(=O)NCc3cn(-c4cc(Cl)ccn4)nn3)s2)c1

inhibition ([1]; filed as antagonist): 51.7% | inhibition [2]: 39.2% | IC50 (P2X purinoceptor 7 [3]): 188 nM | inhibition ([8]; filed as antagonist): 60.7% | inhibition ([10]; filed as antagonist): 46.2%
SMILES: Nc1ccc(-c2ncc(C(=O)NCc3cn(-c4cc(Cl)ccn4)nn3)s2)cc1

inhibition ([1]; filed as antagonist): 68.3% | inhibition ([2]; filed as antagonist): 62.5% | IC50 (P2X purinoceptor 7 [3]): 69.9 nM | half-life [4]: > 2 h | CLint scaled [5]: < 12 mL/min/kg | CLint scaled [6]: < 12 mL/min/kg | half-life [7]: > 2 h | inhibition ([8]; filed as antagonist): 83.9% | IC50 (P2X purinoceptor 7 [9]): 656 nM | inhibition ([10]; filed as antagonist): 40%
SMILES: O=C(NCc1cn(-c2cc(Cl)ccn2)nn1)c1cnc(-c2cccc(NS(=O)(=O)C3CC3)c2)s1
